Where a name gives a salt, the structure may show the parent alone. Read-outs that look alike come from different tables or passages of the source.
Legend:
primary human T-cells [1] = assay: Proliferation assay after 5 days (CellTiter-Glo, CD3 stimulation; PBS counter screen); type: cell-based; settings: CD3 stimulation; for Emax: read-out: Emax proliferation (% activation); for EC50: primary human T-cells, CellTiter-Glo after 5 days, EC50 of fitted sigmoidal curve, read-out: Tcell Proliferation CD3 EC50
How it was run: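 Luminescent ATP detection (CellTiter-Glo 2.0) quantified cell number 5 days after compounds went onto medium-only plates. Wells showing visible toxicity or precipitate were noted beforehand, and compounds that stimulated unstimulated cells or lowered viability were flagged.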

primary human T-cells [2] = test system: primary human T-cells
Description: As readouts for T-cell activation, IL2 secretion after 24 hours and proliferation after 5 days was measured. Increases in IL2 secretion and proliferation upon compound treatment were assessed as the % of the maximum of reference compound A1. […] As a counter screen and to make sure that no unwanted TCR-independent activation was triggered, PBS conditions were run for all compounds.
For coating of plates, PBS++ with PBS−− or PBS++ with CD3 antibody (concentration depending on donor and determined by CD3 titrations) was added 100 μl/well to Poly-D Lysine coated 96-well plates. Plates were sealed and incubated at room temperature for 3 hours on a table-top rocking platform. After incubation, plates were washed once with PBS−− and filled with 40 μl/well culture medium only. Compounds were then added (see next section) to medium only plates. After 3 hours of culturing the T-cells, cells were filtered through a cell strainer (Miltenyi Biotech, #130-041-407), counted again and concentration was adjusted to 1.25 Mio/ml.
Cells were then seeded 80 μl/well to the 40 μl/well including dispensed compounds according to plate layout. By adding cells, compounds were further diluted 1:3, and resulting in 100 k cells/120 μl/well. After 24 hours 40 μl of supernatant was collected carefully from the top while not disturbing the cells and transferred into a round bottom 96 well plate. Collected and frozen supernatant was used for detection of IL2 using the IL-2 Human ProQuantum Immunoassay Kit (Invitrogen) or using the Human IL-2 ELISA Kit (Thermo Fisher).
Compounds were added in a 5 or 6pt dose response with the Tecan D300e Digital Dispenser, all conditions 3 times more concentrated than the end-concentration, since cells are added afterwards (80 μl cells to 40 μl prepared medium with treatment). The DR was starting at 20 μM or 10 μM final top concentration and a dilution factor of 3.333. The positive control was the reference compound A1 that was added in a dose response as well, additionally to 3 wells of only 20 μM representing the positive stimulator control. All wells were normalized with DMSO to a final concentration of 0.6% (0.2% end-concentration).
The immunoassay is done following the manufacturer's manual (Invitrogen, #A35603). Additional information: For the immunoassay, MicroAmp™ EnduraPlate™ Optical 384-Well plates are used. Frozen supernatant is thawed and centrifuged for 5 minutes at 1000×g, both steps at 4° C. After centrifugation, required sample amount is taken from the top, and in a separate LightCycler V-bottom plate (working plate) diluted with assay dilution buffer, dilution factor depending on the PBS or CD3 condition but at least 1:3. IL-2 standard and blanks are prepared in the same V-bottom plate, standard with a range of 0.0128-5000 pg/ml (extended version). After preparation, 5 μl of sample dilutions or standard/blanks are transferred to the optical 384-well plate (assay plate) and the 10 μl reaction protocol is being followed. For measurement, the QuantStudio 12K Flex system is used.
ELISA is done following the manufacturer's manual (Thermo Fisher Scientific, #88-7025-88). Additional information: For the ELISA Nunc MaxiSorp 96 well plates are used. Frozen supernatant is thawed and centrifuged for 5 minutes at 1000×g, both steps at 4° C. After that, required sample amount is taken from the top, and in a separate V-bottom plate diluted with ELISA diluent, dilution factor depending on the PBS or CD3 condition. IL-2 standard and blanks are prepared in the same V-bottom plate. After preparation, 50 μl of sample dilutions and 100 μl of standard or blanks are transferred to the Nunc plates.
CD3 and PBS plates were analysed separately in Genedata Screener using Roche Normalization PCT_POS_CTRL with DMSO set as Neutral Control and 20 μM of the reference compound A1 set as Stimulator Control/100%.
For CD3 conditions EC50 and Emax of the fitted sigmoidal curve were reported.

[3] = Homo sapiens, T-cell, 120 h, 5 days, normalized to reference compound A1 as stimulator control = 100%, DMSO neutral control

| EC50 (primary human T-cells [2]) | SMILES | Emax (primary human T-cells [1]; [3]) | EC50 (primary human T-cells [1]; Homo sapiens, T-cell, 120 h) | Emax proliferation (% activation) (primary human T-cells [1]; 5 days, normalized to reference compound A1 as stimulator control = 100%, DMSO neutral control) | EC50 (primary human T-cells [1]) |
| --- | --- | --- | --- | --- | --- |
| 0.475 µM | NC1CN(c2nnc(-c3cc4c(cc3F)S(=O)(=O)C[C@H](N)C(=O)N4Cc3ccc(Cl)cc3)o2)CCC1(F)F (stereo partly drawn) [Example 467, (3R)-3-amino-7-[5-(3-amino-4,4-difluoro-1-piperidyl)-1,3,4-oxadiazol-2-yl]-5-[(4-chlorophenyl)methyl]-8-fluoro-1,1-dioxo-2,3-dihydro-1λ^6,5-benzothiazepin-4-one] | 102% | 0.88 µM |  |  |
| 3.78 µM | CC1(C#N)CCN(c2nnc(-c3cc4c(cc3F)S(=O)(=O)C[C@H](N)C(=O)N4Cc3ccc(Cl)cc3)o2)CC1 [Example 468, 4-methyl-1-[5-[(3R)-3-amino-5-[(4-chlorophenyl)methyl]-8-fluoro-1,1,4-trioxo-2,3-dihydro-1λ^6,5-benzothiazepin-7-yl]-1,3,4-oxadiazol-2-yl]piperidine-4-carbonitrile] | 127% | 2.67 µM |  |  |
| 0.551 µM | CN1CCN(c2nnc(-c3cc4c(cc3F)S(=O)(=O)C[C@H](N)C(=O)N4Cc3ccc(Cl)cc3)o2)CC1 [Example 470, (3R)-3-amino-5-[(4-chlorophenyl)methyl]-8-fluoro-7-[5-(4-methylpiperazin-1-yl)-1,3,4-oxadiazol-2-yl]-1,1-dioxo-2,3-dihydro-1λ^6,5-benzothiazepin-4-one] | 101% | 1.41 µM |  |  |
| > 10 µM | CC(=O)N1CCN(c2nnc(-c3cc4c(cc3F)S(=O)(=O)C[C@H](N)C(=O)N4Cc3ccc(Cl)cc3)o2)CC1 [Example 471, (3R)-7-[5-(4-acetylpiperazin-1-yl)-1,3,4-oxadiazol-2-yl]-3-amino-5-[(4-chlorophenyl)methyl]-8-fluoro-1,1-dioxo-2,3-dihydro-1λ^6.5-benzothiazepin-4-one] | 65% | 8.03 µM |  |  |
| 0.109 µM | N[C@H]1CS(=O)(=O)c2cc(F)c(-c3nnc(N4CCOC5(CC5)C4)o3)cc2N(Cc2ccc(Cl)cc2)C1=O [Example 472, (3R)-3-amino-5-[(4-chlorophenyl)methyl]-8-fluoro-7-[5-(4-oxa-7-azaspiro[2.5]octan-7-yl)-1,3,4-oxadiazol-2-yl]-1,1-dioxo-2,3-dihydro-1λ^6,5-benzothiazepin-4-one] | 115% | 0.116 µM |  |  |
| 2.61 µM | CC1(C)CN(c2nnc(-c3cc4c(cc3F)S(=O)(=O)C[C@H](N)C(=O)N4Cc3ccc(Cl)cc3)o2)CCO1 [Example 473, (3R)-3-amino-5-[(4-chlorophenyl)methyl]-7-[5-(2,2-dimethylmorpholin-4-yl)-1,3,4-oxadiazol-2-yl]-8-fluoro-1,1-dioxo-2,3-dihydro-1λ^6,5-benzothiazepin-4-one] | 126% | 0.403 µM |  |  |
| 0.251 µM | N[C@H]1CS(=O)(=O)c2cc(F)c(-c3nnc(N4CC5(CCC5)C4)o3)cc2N(Cc2ccc(Cl)cc2)C1=O [Example 474] | 138% | 0.135 µM |  |  |
| 4.24 µM | N[C@H]1CS(=O)(=O)c2cc(F)c(-c3nnc(N4CCC5(CC4)CC(F)(F)CN5)o3)cc2N(Cc2ccc(Cl)cc2)C1=O [Example 475, (3R)-3-amino-5-[(4-chlorophenyl)methyl]-7-[5-(3,3-difluoro-1,8-diazaspiro[4.5]decan-8-yl)-1,3,4-oxadiazol-2-yl]-8-fluoro-1,1-dioxo-2,3-dihydro-1λ^6,5-benzothiazepin-4-one; hydrochloride] | 85% | 0.941 µM |  |  |
| 2.7 µM | NC1CN(c2nnc(-c3cc4c(cc3F)S(=O)(=O)C[C@H](N)C(=O)N4Cc3ccc(Cl)cc3)o2)CC(F)(F)C1 (stereo partly drawn) [Example 477, (3R)-3-amino-7-[5-(5-amino-3,3-difluoro-1-piperidyl)-1,3,4-oxadiazol-2-yl]-5-[(4-chlorophenyl)methyl]-8-fluoro-1,1-dioxo-2,3-dihydro-1λ^6.5-benzothiazepin-4-one] | 77% | 3.49 µM |  |  |
| 0.832 µM | N[C@H]1CS(=O)(=O)c2cc(F)c(-c3nnc(N4CCC5(CC4)COC5)o3)cc2N(Cc2ccc(Cl)cc2)C1=O [Example 478, (3R)-3-amino-5-[(4-chlorophenyl)methyl]-8-fluoro-7-[5-(2-oxa-7-azaspiro[3.5]nonan-7-yl)-1,3,4-oxadiazol-2-yl]-1,1-dioxo-2,3-dihydro-1λ^6,5-benzothiazepin-4-one] | 87% | 1.32 µM |  |  |
| 0.11 µM | N[C@H]1CS(=O)(=O)c2cc(F)c(-c3nnc(N4CC5(C4)CC(F)(F)C5)o3)cc2N(Cc2ccc(Cl)cc2)C1=O [Example 479, (3R)-3-amino-5-[(4-chlorophenyl)methyl]-7-[5-(6,6-difluoro-2-azaspiro[3.3]heptan-2-yl)-1,3,4-oxadiazol-2-yl]-8-fluoro-1,1-dioxo-2,3-dihydro-1λ^6,5-benzothiazepin-4-one] | 127% | 0.439 µM |  |  |
| < 0.0151 µM | N[C@H]1CS(=O)(=O)c2cc(F)c(-c3nnc(N4CCC(F)(F)CC4)o3)cc2N(Cc2ccc(Cl)cc2)C1=O [Example 480, (3R)-3-amino-5-[(4-chlorophenyl)methyl]-7-[5-(4,4-difluoro-1-piperidyl)-1,3,4-oxadiazol-2-yl]-8-fluoro-1,1-dioxo-2,3-dihydro-1λ^6,5-benzothiazepin-4-one] | 152% | 0.163 µM |  |  |

Further lines, the molecule ahead of its results:

| SMILES | EC50 (primary human T-cells [2]) | Emax (primary human T-cells [1]; [3]) | EC50 (primary human T-cells [1]; Homo sapiens, T-cell, 120 h) | Emax proliferation (% activation) (primary human T-cells [1]; 5 days, normalized to reference compound A1 as stimulator control = 100%, DMSO neutral control) | EC50 (primary human T-cells [1]) |
| --- | --- | --- | --- | --- | --- |
| COC1CCN(c2ccc(CN3C(=O)[C@@H](N)CS(=O)(=O)c4ccc(-c5nnc(C(C)(C)C)o5)cc43)cc2)CC1 [Example 447, (3R)-3-amino-7-(5-tert-butyl-1,3,4-oxadiazol-2-yl)-5-[[4-(4-methoxy-1-piperidyl)phenyl]methyl]-1,1-dioxo-2,3-dihydro-1λ^6,5-benzothiazepin-4-one] | 2.54 µM | 113% | > 10 µM |  |  |
| CC(C)(C)c1nnc(-c2ccc3c(c2)N(Cc2ccc(N4CCCC4)cc2)C(=O)[C@@H](N)CS3(=O)=O)o1 [Example 448, (3R)-3-amino-7-(5-tert-butyl-1,3,4-oxadiazol-2-yl)-1,1-dioxo-5-[(4-pyrrolidin-1-ylphenyl)methyl]-2,3-dihydro-1λ^6.5-benzothiazepin-4-one] | 4.62 µM | 94% | 1.96 µM |  |  |
| C#CCC(C)(C)c1nnc(-c2cc3c(cc2F)S(=O)(=O)C[C@H](N)C(=O)N3Cc2ccc(OC(F)(F)F)cc2)o1 [Example 450, (3R)-3-amino-7-[5-(1,1-dimethylbut-3-ynyl)-1,3,4-oxadiazol-2-yl]-8-fluoro-1,1-dioxo-5-[[4-(trifluoromethoxy)phenyl]methyl]-2,3-dihydro-1λ^6,5-benzothiazepin-4-one] | 0.0731 µM | 114% | 0.0715 µM |  |  |
| CC(C)(C)c1nnc(-c2cc3c(cc2F)[S+]([O-])C[C@H](N)C(=O)N3Cc2ccc(OC(F)(F)F)cc2)o1 (stereo partly drawn) [Example 453] | 0.178 µM |  |  | 136 % activation | 0.444 µM |
| CCN1CCCC(Nc2nnc(-c3cc4c(cc3F)S(=O)(=O)C[C@H](N)C(=O)N4Cc3ccc(Cl)cc3)o2)C1 (stereo partly drawn) [Example 457, (3R)-3-amino-5-[(4-chlorophenyl)methyl]-7-[5-[(1-ethyl-3-piperidyl)amino]-1,3,4-oxadiazol-2-yl]-8-fluoro-1,1-dioxo-2,3-dihydro-1λ^6,5-benzothiazepin-4-one] | 4.88 µM | 50% | 1.14 µM |  |  |
| N[C@H]1CS(=O)(=O)c2cc(F)c(-c3nnc(NC4CCN(C5CC5)CC4)o3)cc2N(Cc2ccc(Cl)cc2)C1=O [Example 460, (3R)-3-amino-5-[(4-chlorophenyl)methyl]-7-[5-[(1-cyclopropyl-4-piperidyl)amino]-1,3,4-oxadiazol-2-yl]-8-fluoro-1,1-dioxo-2,3-dihydro-1λ^6,5-benzothiazepin-4-one] | 0.509 µM | 55% | 5.7 µM |  |  |
| CN(C)c1nnc(-c2cc3c(cc2F)S(=O)(=O)C[C@H](N)C(=O)N3Cc2ccc(Cl)cc2)o1 [Example 465, (3R)-3-amino-5-[(4-chlorophenyl)methyl]-7-[5-(dimethylamino)-1,3,4-oxadiazol-2-yl]-8-fluoro-1,1-dioxo-2,3-dihydro-1λ^6,5-benzothiazepin-4-one] | 1.17 µM | 100% | 0.171 µM |  |  |
| N[C@H]1CS(=O)(=O)c2cc(F)c(-c3nnc(N4C[C@H]5C[C@@H](C4)C5(F)F)o3)cc2N(Cc2ccc(Cl)cc2)C1=O [Example 469, (3R)-3-amino-5-[(4-chlorophenyl)methyl]-8-fluoro-1,1-dioxo-7-[5-[(1R,5S)-6,6-difluoro-3-azabicyclo[3.1.1]heptan-3-yl]-1,3,4-oxadiazol-2-yl]-2,3-dihydro-1λ^6,5-benzothiazepin-4-one] | 2.55 µM | 105% | 0.17 µM |  |  |
| N[C@H]1CS(=O)(=O)c2cc(F)c(-c3nnc(N4CC5COCC(C4)C5(F)F)o3)cc2N(Cc2ccc(Cl)cc2)C1=O [Example 476, (3R)-3-amino-5-[(4-chlorophenyl)methyl]-7-[5-(9,9-difluoro-3-oxa-7-azabicyclo[3.3.1]nonan-7-yl)-1,3,4-oxadiazol-2-yl]-8-fluoro-1,1-dioxo-2,3-dihydro-1λ^6,5-benzothiazepin-4-one] | 8.68 µM | 95% | 0.455 µM |  |  |
| N[C@H]1CS(=O)(=O)c2cc(F)c(-c3nnc(NC4CC4)o3)cc2N(Cc2ccc(Cl)cc2)C1=O [Example 481, (3R)-3-amino-5-[(4-chlorophenyl)methyl]-7-[5-(cyclopropylamino)-1,3,4-oxadiazol-2-yl]-8-fluoro-1,1-dioxo-2,3-dihydro-1λ^6,5-benzothiazepin-4-one] | 1.88 µM | 89% | 3.05 µM |  |  |
